Where “and” joins values, the source holds several entries; their conditions need not be identical. Equal entries are not always repeated. Toxic doses and inconclusive results are not listed.
Tested on: L1210 leukemia ip in BDF1 mice, survival T/C
Assay: NCI In Vivo Anticancer Drug Screen. Data for tumor model L1210 Leukemia (intraperitoneal) in B6D2F1 (BDF1) mice
Conditions: endpoint: mean survival time, higher = longer survival
Procedure, shortened: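 Transplanted-tumor mice were given test agent; controls received vehicle only. Survival readings from the two groups were divided (treated over control).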

[1] = dose: 100.0 mg/kg/injection, schedule: Q01DX001 (ip), vehicle: carboxymethylcellulose (CMC)
[2] = dose: 200.0 mg/kg/injection, schedule: Q01DX001 (ip), vehicle: carboxymethylcellulose (CMC)
[3] = dose: 400.0 mg/kg/injection, schedule: Q01DX001 (ip), vehicle: carboxymethylcellulose (CMC)
[4] = dose: 12.5 mg/kg/injection, schedule: Q04DX002 (ip), vehicle: saline
[5] = dose: 25.0 mg/kg/injection, schedule: Q04DX002 (ip), vehicle: saline
[6] = dose: 50.0 mg/kg/injection, schedule: Q04DX002 (ip), vehicle: saline
[7] = dose: 100.0 mg/kg/injection, schedule: Q01DX001 (ip), vehicle: saline
[8] = dose: 200.0 mg/kg/injection, schedule: Q01DX001 (ip), vehicle: saline
[9] = dose: 400.0 mg/kg/injection, schedule: Q01DX001 (ip), vehicle: saline
[10] = dose: 12.5 mg/kg/injection, schedule: Q01DX009 (ip), vehicle: Klucel (hydroxypropylcellulose) (HPC)
[11] = dose: 25.0 mg/kg/injection, schedule: Q01DX009 (ip), vehicle: Klucel (hydroxypropylcellulose) (HPC)
[12] = dose: 50.0 mg/kg/injection, schedule: Q01DX009 (ip), vehicle: Klucel (hydroxypropylcellulose) (HPC)
[13] = dose: 75.0 mg/kg/injection, schedule: Q04DX002 (ip), vehicle: Klucel (hydroxypropylcellulose) (HPC)
[14] = dose: 150.0 mg/kg/injection, schedule: Q04DX002 (ip), vehicle: Klucel (hydroxypropylcellulose) (HPC)
[15] = dose: 300.0 mg/kg/injection, schedule: Q04DX002 (ip), vehicle: Klucel (hydroxypropylcellulose) (HPC)
[16] = dose: 100.0 mg/kg/injection, schedule: Q01DX001 (ip), vehicle: Klucel (hydroxypropylcellulose) (HPC)
[17] = dose: 200.0 mg/kg/injection, schedule: Q01DX001 (ip), vehicle: Klucel (hydroxypropylcellulose) (HPC)
[18] = dose: 400.0 mg/kg/injection, schedule: Q01DX001 (ip), vehicle: Klucel (hydroxypropylcellulose) (HPC)
[19] = dose: 100.0 mg/kg/injection, schedule: Q04DX003 (ip), vehicle: Klucel (hydroxypropylcellulose) (HPC)
[20] = dose: 200.0 mg/kg/injection, schedule: Q04DX003 (ip), vehicle: Klucel (hydroxypropylcellulose) (HPC)

In the case of `COc1ccc(OC)c(NC(=O)NNc2c([N+](=O)[O-])cc(C(F)(F)F)cc2[N+](=O)[O-])c1`, the T/C (dose: 100.0 mg/kg/injection, schedule: Q01DX009 (ip), vehicle: other) is reported as 97 % of control and the T/C (dose: 200.0 mg/kg/injection, schedule: Q01DX009 (ip), vehicle: other) is reported as 89 % of control.

In the case of `CCCCOC(=O)C1C=C(N)CCC1` (stereo not given), the T/C [1] is reported as 92 % of control, the T/C [2] is reported as 89 % of control and the T/C [3] is reported as 94 % of control.

In the case of `ON=C1CSCSC1`, the T/C [4] is reported as 91 % of control, the T/C [5] is reported as 94 % of control and the T/C [6] is reported as 88 % of control.

In the case of `CN(C)N=Nc1c[nH]c(=O)[nH]c1=O`, the T/C (dose: 10.0 mg/kg/injection, schedule: Q01DX001 (ip), vehicle: saline) is reported as 108 % of control, the T/C (dose: 20.0 mg/kg/injection, schedule: Q01DX001 (ip), vehicle: saline) is reported as 120 % of control and the T/C (dose: 40.0 mg/kg/injection, schedule: Q01DX001 (ip), vehicle: saline) is reported as 123 % of control.

`[O-][n+]1ccnc2ccccc21` was tested, and the T/C (dose: 100.0 mg/kg/injection, schedule: Q04DX003 (ip), vehicle: saline) was 100 % of control, the T/C (dose: 200.0 mg/kg/injection, schedule: Q04DX003 (ip), vehicle: saline) was 108 % of control and the T/C (dose: 400.0 mg/kg/injection, schedule: Q04DX003 (ip), vehicle: saline) was 110 % of control.

For `O=CN/N=C/c1cc(=O)[nH]c(=O)[nH]1`, the T/C [7] was 87 % of control, the T/C [8] was 87 % of control and the T/C [9] was 93 % of control.

In the case of `Nc1cc(C(=O)Nc2ccc(CCNC3=NCCN3)cc2)ccc1C(=O)Nc1ccc(CCNC2=NCCN2)cc1`, the T/C (dose: 0.26 mg/kg/injection, schedule: Q01DX001 (ip), vehicle: water) is reported as 103 % of control, the T/C (dose: 0.4 mg/kg/injection, schedule: Q01DX001 (ip), vehicle: water) is reported as 101 % of control and the T/C (dose: 0.6 mg/kg/injection, schedule: Q01DX001 (ip), vehicle: water) is reported as 103 % of control. For the same compound, the T/C (dose: 0.93 mg/kg/injection, schedule: Q01DX001 (ip), vehicle: water) was 101 % of control, the T/C (dose: 0.93 mg/kg/injection, schedule: Q01DX015 (ip), vehicle: water) was 101 % of control and the T/C (dose: 1.87 mg/kg/injection, schedule: Q01DX015 (ip), vehicle: water) was 119 % of control. The T/C (dose: 3.75 mg/kg/injection, schedule: Q01DX015 (ip), vehicle: water) was 156 % of control, the T/C (dose: 4.8 mg/kg/injection, schedule: Q01DX Z (oral), vehicle: water) was 109 % of control and the T/C (dose: 7.5 mg/kg/injection, schedule: Q01DX015 (ip), vehicle: water) was 216 % of control. For the same compound, the T/C (dose: 7.5 mg/kg/injection, schedule: Q01DX Z (ip), vehicle: water) was 265 % of control, the T/C (dose: 7.5 mg/kg/injection, schedule: Q01DX Z (oral), vehicle: water) was 113 % of control and the T/C (dose: 11.0 mg/kg/injection, schedule: Q01DX Z (oral), vehicle: water) was 111 % of control. For the same compound, the T/C (dose: 15.0 mg/kg/injection, schedule: Q01DX015 (ip), vehicle: water) was 97 % of control, the T/C (dose: 16.0 mg/kg/injection, schedule: Q01DX Z (oral), vehicle: water) was 104 % of control and 119 % of control and the T/C (dose: 23.0 mg/kg/injection, schedule: Q01DX Z (oral), vehicle: water) was 104 % of control. The T/C (dose: 35.0 mg/kg/injection, schedule: Q01DX Z (oral), vehicle: water) was 102 % of control, the T/C (dose: 55.0 mg/kg/injection, schedule: Q01DX Z (oral), vehicle: water) was 99 % of control and 115 % of control and the T/C (dose: 85.0 mg/kg/injection, schedule: Q01DX Z (oral), vehicle: water) was 114 % of control. For the same compound, the T/C (dose: 125.0 mg/kg/injection, schedule: Q01DX Z (oral), vehicle: water) was 118 % of control and the T/C (dose: 190.0 mg/kg/injection, schedule: Q01DX Z (oral), vehicle: water) was 104 % of control and 113 % of control.

`CN(C)CCCN=C(N)CCl` was tested, and the T/C [4] was 101 % of control, the T/C [5] was 108 % of control and the T/C [6] was 87 % of control. The T/C (dose: 100.0 mg/kg/injection, schedule: Q04DX002 (ip), vehicle: saline) was 97 % of control.

With `COc1cc(C(=O)NNC(=O)C(=O)NNC(=O)c2cc(OC)c(OC)c(OC)c2)cc(OC)c1OC` the T/C (dose: 6.25 mg/kg/injection, schedule: Q01DX009 (ip), vehicle: Klucel (hydroxypropylcellulose) (HPC)) was 95 % of control, the T/C [10] was 96 % of control and 101 % of control and the T/C [11] was 102 % of control. The T/C [12] was 92 % of control and 98 % of control and 101 % of control and the T/C (dose: 100.0 mg/kg/injection, schedule: Q01DX009 (ip), vehicle: Klucel (hydroxypropylcellulose) (HPC)) was 86 % of control.

For `O=C1CC2(O)CCC1(c1ccccc1)CC2`, the T/C [13] was 92 % of control, the T/C [14] was 100 % of control and the T/C [15] was 95 % of control.

In the case of `CCOC(=O)NCc1cccc2ccc(Cl)cc12`, the T/C [16] is reported as 95 % of control, the T/C [17] is reported as 90 % of control and the T/C [18] is reported as 86 % of control.

`COc1ccc(CCNC(=O)C2CCN(CCc3ccc(OC)c(OC)c3)CC2)cc1OC` was tested, and the T/C [1] was 102 % of control, the T/C [2] was 96 % of control and the T/C [3] was 89 % of control.

In the case of `COc1ccc(C(N)C(=O)O)cc1` (stereo not given), the T/C (dose: 50.0 mg/kg/injection, schedule: Q01DX001 (ip), vehicle: saline) is reported as 94 % of control, the T/C (dose: 75.0 mg/kg/injection, schedule: Q01DX009 (ip), vehicle: Klucel (hydroxypropylcellulose) (HPC)) is reported as 110 % of control and the T/C [16] is reported as 96 % of control. The T/C [7] was 94 % of control, the T/C (dose: 150.0 mg/kg/injection, schedule: Q01DX009 (ip), vehicle: Klucel (hydroxypropylcellulose) (HPC)) was 113 % of control and the T/C [17] was 97 % of control. The T/C [8] was 96 % of control, the T/C (dose: 300.0 mg/kg/injection, schedule: Q01DX009 (ip), vehicle: Klucel (hydroxypropylcellulose) (HPC)) was 101 % of control and the T/C [18] was 92 % of control. The T/C [9] was 96 % of control.

With `Cc1cccc(C(=O)OCc2ccccc2CN(C)C)c1` the T/C [13] was 91 % of control, the T/C [14] was 94 % of control and the T/C [15] was 94 % of control.

With `O=S1(=O)CC(N2CCCCC2)C1` the T/C (dose: 75.0 mg/kg/injection, schedule: Q01DX001 (ip), vehicle: saline) was 103 % of control.

For `CC(C)(C)N1OC1c1cccc(Cl)c1` (stereo not given), the T/C (dose: 100.0 mg/kg/injection, schedule: Q01DX001 (ip), vehicle: other) was 95 % of control, the T/C [19] was 98 % of control and the T/C (dose: 200.0 mg/kg/injection, schedule: Q01DX001 (ip), vehicle: other) was 94 % of control. The T/C [20] was 93 % of control, the T/C (dose: 400.0 mg/kg/injection, schedule: Q01DX001 (ip), vehicle: other) was 97 % of control and the T/C (dose: 400.0 mg/kg/injection, schedule: Q04DX003 (ip), vehicle: Klucel (hydroxypropylcellulose) (HPC)) was 101 % of control.

With `COC(=O)C1OC1c1ccccc1OC` (stereo not given) the T/C [7] was 105 % of control, the T/C [8] was 102 % of control and the T/C [9] was 109 % of control.

For `COc1cc(Nc2ccc(Oc3ccc(O)c(CN)c3)cc2)c2ncccc2c1`, the T/C (dose: 75.0 mg/kg/injection, schedule: Q01DX001 (ip), vehicle: other) was 103 % of control, the T/C (dose: 150.0 mg/kg/injection, schedule: Q01DX001 (ip), vehicle: other) was 97 % of control and the T/C (dose: 300.0 mg/kg/injection, schedule: Q01DX001 (ip), vehicle: other) was 100 % of control.

For `Cn1c(N)c(N=Cc2ccc(C=Nc3c(N)n(C)c(=O)n(C)c3=O)cc2)c(=O)n(C)c1=O`, the T/C (dose: 50.0 mg/kg/injection, schedule: Q01DX001 (ip), vehicle: carboxymethylcellulose (CMC)) was 88 % of control, the T/C [2] was 96 % of control and the T/C [3] was 90 % of control.

For `CC(C)(O)CCC1=C(O)c2ccccc2C(=O)C1=O`, the T/C [19] was 100 % of control and the T/C [20] was 94 % of control.

With `O=C1c2ccccc2C(=O)N1c1ccc([N+](=O)[O-])cc1` the T/C [16] was 103 % of control, the T/C [17] was 97 % of control and the T/C [18] was 103 % of control.

`Cc1ccc(N=Cc2cc(Cl)cc(Cl)c2OC(=O)c2ccccc2)cc1C` was tested, and the T/C (dose: 100.0 mg/kg/injection, schedule: Q04DX002 (ip), vehicle: saline with Tween-80) was 95 % of control, the T/C (dose: 200.0 mg/kg/injection, schedule: Q04DX002 (ip), vehicle: saline with Tween-80) was 92 % of control and the T/C (dose: 400.0 mg/kg/injection, schedule: Q04DX002 (ip), vehicle: saline with Tween-80) was 88 % of control.

`CC(=O)OC1CCC2(C)C(CCC3C4CC=C(C(C)=O)C4(C)OC(=O)CC32)C1` (stereo not given) was tested, and the T/C [10] was 98 % of control, the T/C [11] was 96 % of control and the T/C [12] was 98 % of control.
